Laboratory results: patent US20180369342A1, “CARDIAC METABOLIC EFFECT OF LANTUS” (Sanofi-Aventis Deutschland GmbH, priority 2015, published 2018)
Entries after “also recorded” stand apart in the source; their conditions may differ.

Tests used:
db/db mouse hearts = experiment: Isolated working heart perfusion, cardiac energy metabolism (acute treatment), db/db; details: for glucose oxidation / palmitate oxidation: isolated working db/db mouse hearts, 10 wk old
Method: (§1) The effect of three different types of insulin, human insulin, insulin degludec, and the M1 metabolite of insulin glargine, on cardiac metabolism was determined in adult, 10 weeks old mice using either healthy C57Bl6 wildtype mice or Type-2 diabetes db/db mice. Mice were fed a standard chow diet and kept in 12 hr light: 12 hr dark cycle. To test their acute effect energy metabolism, hearts were removed from fully anesthetized mice, and perfused as isolated working hearts with Krebs Henseleit buffer (118.5 mM NaCl, 1.2 mM MgSO4, 25 mM NaHCO3, 4.7 mM KCl, 1.2 mM KH2PO4, 2.5 mM CaCl2) supplemented with 0.8 mM palmitate bound to 3% fatty acid-free bovine serum albumin (BSA), 5 mM glucose, and 0.5 mM lactate. Hearts underwent aerobic perfusion for 72 min with vehicle or increasing amounts of insulin (0, 25, 50, 100 μU/ml), insulin Degludec (0, 100, 300, 1000 μU/ml), or the M1 metabolite of insulin Glargine (0, 25, 50, 100 μU/ml). Each concentration escalation step lasted 18 minutes. At the end of the heart perfusion hearts were immediately snap frozen in liquid N2 and stored at −80° C. See FIG. 1 In order to measure glucose oxidation, glycolysis, palmitate oxidation, and lactate oxidation [U-^14C] glucose, [5-^3H] glucose, [9, 10-^3H] palmitate, and [U-^14C] lactate, respectively, were added to the perfusate as described above in Example 1. Glycolysis and palmitate oxidation rates were determined based on the rates of ^3H2O production. To determine glucose oxidation and lactate oxidation rates ^14CO2 production was assessed.

C57bl/6 mouse hearts = experiment: Isolated working heart perfusion, cardiac energy metabolism (acute treatment), C57bl/6; details: for cardiac efficiency / % ATP from glucose oxidation / % ATP from palmitate oxidation: C57bl/6 mouse hearts; for glucose oxidation / palmitate oxidation: isolated working C57bl/6 mouse hearts, 10 wk old
Method: as §1

db/db mice [1] = experiment: Chronic treatment of db/db mice: blood glucose and glucose tolerance; type: in vivo, mouse; details: 18 week old db/db mice; for blood glucose levels: 5 U/kg BW daily, data not shown; for blood glucose tolerance: 150 U/kg BW daily for 4 weeks
Method: (§2) In a second set 18 week old db/db mice were treated with vehicle, NPH insulin, Degludec, or Lantus daily for 4 weeks (see FIG. 8). 18 wk old db/db mice were specifically used because by this age they have a diastolic dysfunction. The original protocol involved treating the mice with either NPH insulin (5 U/kg BW), Degludec (5 U/kg BW), or Lantus (5 U/kg BW). […] Other groups have reported that a higher dose of insulin is required to control hyperglycemia in db/db mice. The highest dose that had been reported to be safe, was 150 U/kg BW, which was then used for future experiments. Treating the mice with 150 U/kg BW of NPH insulin, Degludec, or Lantus improved blood glucose tolerance much more dramatically (FIG. 9). At the end of the 4 week treatment period, the cardiac energy metabolism and function was assessed via echocardiography. The Vevo 770 high resolution echocardiography imaging system was used to assess in vivo cardiac function was assessed in isoflurane anesthetized mice.

Akt = experiment: Western Blot Analysis of cardiac Akt phosphorylation after acute treatment; details: db/db mouse hearts
Method: The phosphorylation status of several enzymes involved in insulin signaling were also assessed in the C57bl/6 and db/db mouse hearts treated acutely with insulin, Degludec, or Lantus, via Western Blot Analysis. Frozen heart issue was homogenized for 30 sec in homogenization buffer (50 mM Tris HCl, 10% glycerol, 1 mM EDTA, 0.02% Brij-35, 1 mM DTT, and protease and phosphatase inhibitors (Sigma)). After sitting on ice at least 10 min, tissue homogenates were centrifuged at 10,000×g for 20 min. The supernatant was then stored at −80° C. Protein concentration of supernatant was determined using the Bradford protein assay. After running samples on SDS-polyacrylamide gel electrophoresis, protein was transferred onto nitrocellulose membrane. Primary antibodies included pAkt Ser473 (Cell Signaling 9271), Akt (Cell Signaling 9272), pGSK3α/β Ser21/9 (Cell Signaling 9331), GSK3β (Cell Signaling 9315), pPDH Ser293 (Calbiochem AP1062), and PDH (Cell Signaling 2784). Protein bands were visualized on autoradiography film using enhanced chemiluminescence (Perkin Elmer) and quantified with Image J.

db/db mice [2] = experiment: Chronic treatment of db/db mice: in vivo cardiac function by echocardiography; parameters: species or system mouse; details: chronic treatment 4 weeks
Method: The long-term effects of insulin treatment on cardiac function was assessed in two different settings. In acute treatments, measurements were performed in isolated working hearts from either wildtype mice (C57Bl) or mice with a diabetes type-2 phenotype (db/db mice). In a second chronic setting, db/db animals were treated for 4 weeks with daily administration of different high doses of insulins to achieve similar effects on systemic hypergycaemia. At the end of the chronic study, effects on cardiac function was assessed by echocardiography.
as §2

Substance | cardiac efficiency (db/db mouse hearts; db/db mouse hearts) | glucose oxidation (db/db mouse hearts) | palmitate oxidation (db/db mouse hearts) | cardiac efficiency (C57bl/6 mouse hearts) | glucose oxidation (C57bl/6 mouse hearts) | palmitate oxidation (C57bl/6 mouse hearts) | % ATP from glucose oxidation (db/db mouse hearts; db/db mouse hearts) [%] | % ATP from palmitate oxidation (db/db mouse hearts; db/db mouse hearts) [%] | % ATP from glucose oxidation (C57bl/6 mouse hearts) [%] | % ATP from palmitate oxidation (C57bl/6 mouse hearts) [%] | blood glucose levels (db/db mice [1]) | blood glucose tolerance (db/db mice [1]) | pAkt (Akt) | cardiac output (db/db mice [2]) | cardiac stroke volume (db/db mice [2]) | in vivo cardiac function (db/db mice [2]) | in vivo cardiac function (db/db mice [2]; listed as lantus)
Gly (A21) human insulin [M1-metabolite of insulin glargine] | improved | able to stimulate | inhibit | improved | able to stimulate | inhibit | – | – | – | – | – | – | – | – | – | – | –
insulin: human insulin | – | – | – | – | – | – | 13 | 53 | 18 | 55 | – | – | – | – | – | – | –
NPH insulin: long acting basal insulin | – | – | – | – | – | – | – | – | – | – | did not reduce | improved | – | – | – | – | –
Degludec | – | not | not | – | not | not | 5 | 75 | 12 | 62 | did not reduce | improved | – | – | – | – | –
Gly (A21), Arg (B31), Arg (B32) human insulin [Lantus] | – | stimulates | decreases | improves | stimulates | decreases | 14 | 56 | 30 | 37 | did not reduce | improved | significantly increased | significantly increased; also recorded: improved | significantly increased; also recorded: improved | improved | improves
